Measured values taken from PMC6110851, “An Optimized MicroPET Imaging Method for the Distribution and Synergies of Natural Products” (Frontiers in Pharmacology, 2018).
Where two headings read alike, the source gives them in different places.

Assays:
NF-κB = NF-κB dual luciferase reporter assay in TNF-stimulated HEK 293 T cells; format: cell-based; details: after decay of radioactivity, HEK 293T stimulated by TNF-α
Description: The separation process was repeated five times for use in the activity tests. […] After 48 h, radioactive elements had decayed, the residues were stored at 4°C for anti-inflammatory activity tests ([Dong et al., 2013]; [Qingxin et al., 2016]).
HEK 293 T cells were cultured in standard Dulbecco’s modified Eagle’s medium (DMEM; Hyclone) supplemented with 10% fetal bovine serum (FBS; Biological Industries). The cells were placed in 96-well plates at 37°C in an air-CO2 environment (95/5% v/v). Cells were grown to 80–90% confluence and incubated for 12 h in DMEM without FBS. Transfection (20 h) was performed according to the manufacturer’s instructions. HEK 293 T cells were pretreated with drugs 1 h prior to TNF-stimulation (5 ng/mL) for 6 h. Dex (10^-5mol/L) was used as a positive control for NF-κB inhibition. The NF-κB activity was assayed using dual luciferase reporter assay system (Promega) according to the manufacturer’s instructions ([Qingxin et al., 2016]). Antiinflammatory activity was calculated as the ratio of firefly luciferase activity to Renilla luciferase activity (internal control).

[1] = MicroPET distribution of [^18F]-GA after PG polysaccharides intervention; format: in vivo, mice; details: for tissue uptake at 1 h: po, read-out: %ID/g of [^18F]-GA in the lungs, OA
Description: The mice were grouped by weight and housed in cages of the climate control room (25°C), with a photoperiod 12:12-h. During feeding, mice were free to access food and water. Mice were fasted for 24 h before the experiment. The mice were anesthetized with 4% isoflurane while preparing for scanning ([Constantinescu et al., 2013b]; [Cui et al., 2017]). Eighteen healthy male Kunming mice, weighing 20 ± 2 g, were divided into three groups, which were control group, once-administered (OA) group and long-term administration (LA) group. In the OA group, 1 h before the administration of [^18F]-GA, the mice were orally treated with PG polysaccharides. In the LA group, the mice were orally given the PG polysaccharides for 7 days, but not before the administration of [^18F]-GA.
Rice received a tail vein injection (8.67 ± 2.14 MBq/μg) of [^18F]-GA and placed in the scanner bed and mouse-imaging room immediately ([Constantinescu et al., 2013b]; [O’Doherty et al., 2017]). Firstly, 2 h PET scanning was performed using an Inveon-dedicated PET scanner. The average delay between injection and starting of PET scanning was 3.5 min. Rice were maintained stable under 4% isoflurane anesthesia throughout scanning. The PET list-mode data were dynamically classified into 23 3D sinograms of span and three ring difference. After Fourier recombination, the data were reconstructed using a 2D ordered-subset expectation maximization algorithm. Random events were excluded before reconstruction. The response of detector is normalized using a component-based approach. All dynamic images were corrected for radioactive decay automatically. The PET images were reconstructed by a cone beam algorithm into 480 × 480 × 632 image arrays. After the reconstruction, images were spatially transformed to match the PET images ([Constantinescu et al., 2013a],[b]).
The reconstruction of the image was performed using the PMOD software (PMOD Technologies). The 3D volumes of interest (VOIs) were drawn manually of the following organs: brain, heart, liver, lungs, kidneys, cortical bone, and gallbladder. The organs were carefully identified and VOIs were drawn as irregular contours on high-resolution PET images obtained from each mouse ([Constantinescu et al., 2013b]; [Garg et al., 2017]). The size of each VOI was less than the actual size of each organ to minimize the effects of PET on adjacent organ spills. The VOIs drawing was verified by a second operator. The VOIs of cortical bone were generated by first using PET image to depict the entire femur bone ([Constantinescu et al., 2013b]). The VOI was transferred to a dynamic PET image and the mean time-activity curve (TAC) of the decay correction was extracted for each target organ ([Constantinescu et al., 2013b]).

## CC1(C)[C@@H](O)CC[C@]2(C)[C@H]3C(=O)C=C4[C@@H]5C[C@@](C)(C(=O)NCCCC[18F])CC[C@]5(C)CC[C@@]4(C)[C@]3(C)CC[C@@H]12 [[^18F]-GA, [^18F]-Glycyrrhetinic acid]
NF-κB; high concentration
  inhibition of NF-κB activity: significant inhibition of NF-κB activity
NF-κB; low concentration
  anti-inflammatory activity (NF-κB reporter): weak anti-inflammatory activity
NF-κB; medium concentration
  inhibition of NF-κB activity: significant inhibition of NF-κB activity
[1]; OA vs. Con, Table 2
  time from which lung %ID/g of OA group differs significantly: 7 min
[1]; area under the curve, OA: PG polysaccharides 1 h before, LA: for 7 days
  [^18F]-GA concentration of lung, OA group relative to LA group: 2 times
[1]; area under the curve, PG polysaccharides orally 1 h before [^18F]-GA
  [^18F]-GA concentration of lung, OA group relative to control mice: 2.7 times
[1]; control group, mice
  ranking of organ concentration (area under the curve): concentration of liver was highest, and the lung was lowest
[1]; male, Kunming, mouse, lungs, intravenous, mice, control group, Time(s) 60, read-out: %ID/g of [^18F]-GA in the lungs, Con
  tissue uptake at 60 s: 8.86 %ID/g
[1]; male, Kunming, mouse, lungs, intravenous, mice, control group, Time(s) 180, read-out: %ID/g of [^18F]-GA in the lungs, Con
  tissue uptake at 180 s: 4.36 %ID/g
[1]; male, Kunming, mouse, lungs, intravenous, mice, control group, Time(s) 300, read-out: %ID/g of [^18F]-GA in the lungs, Con
  tissue uptake at 300 s: 3.29 %ID/g
[1]; male, Kunming, mouse, lungs, intravenous, mice, control group, Time(s) 420, read-out: %ID/g of [^18F]-GA in the lungs, Con
  tissue uptake at 420 s: 2.78 %ID/g
[1]; male, Kunming, mouse, lungs, intravenous, mice, control group, Time(s) 540, read-out: %ID/g of [^18F]-GA in the lungs, Con
  tissue uptake at 540 s: 2.42 %ID/g
[1]; male, Kunming, mouse, lungs, intravenous, mice, control group, Time(s) 780, read-out: %ID/g of [^18F]-GA in the lungs, Con
  tissue uptake at 780 s: 2.1 %ID/g
[1]; male, Kunming, mouse, lungs, intravenous, mice, control group, Time(s) 900, read-out: %ID/g of [^18F]-GA in the lungs, Con
  tissue uptake at 900 s: 2.15 %ID/g
[1]; male, Kunming, mouse, lungs, intravenous, mice, control group, Time(s) 1020, read-out: %ID/g of [^18F]-GA in the lungs, Con
  tissue uptake at 1020 s: 2.09 %ID/g
[1]; male, Kunming, mouse, lungs, intravenous, mice, control group, Time(s) 1140, read-out: %ID/g of [^18F]-GA in the lungs, Con
  tissue uptake at 1140 s: 1.9 %ID/g
[1]; male, Kunming, mouse, lungs, intravenous, mice, control group, Time(s) 1350, read-out: %ID/g of [^18F]-GA in the lungs, Con
  tissue uptake at 1350 s: 1.75 %ID/g
[1]; male, Kunming, mouse, lungs, intravenous, mice, control group, Time(s) 1650, read-out: %ID/g of [^18F]-GA in the lungs, Con
  tissue uptake at 1650 s: 1.66 %ID/g
[1]; male, Kunming, mouse, lungs, intravenous, mice, control group, Time(s) 1950, read-out: %ID/g of [^18F]-GA in the lungs, Con
  tissue uptake at 1950 s: 1.55 %ID/g
[1]; male, Kunming, mouse, lungs, intravenous, mice, control group, Time(s) 2250, read-out: %ID/g of [^18F]-GA in the lungs, Con
  tissue uptake at 2250 s: 1.51 %ID/g
[1]; male, Kunming, mouse, lungs, intravenous, mice, control group, Time(s) 2700, read-out: %ID/g of [^18F]-GA in the lungs, Con
  tissue uptake at 2700 s: 1.34 %ID/g
[1]; male, Kunming, mouse, lungs, intravenous, mice, control group, Time(s) 3300, read-out: %ID/g of [^18F]-GA in the lungs, Con
  tissue uptake at 3300 s: 1.26 %ID/g
[1]; male, Kunming, mouse, lungs, intravenous, mice, control group, Time(s) 3900, read-out: %ID/g of [^18F]-GA in the lungs, Con
  tissue uptake at 3900 s: 1.23 %ID/g
[1]; male, Kunming, mouse, lungs, intravenous, mice, control group, Time(s) 4500, read-out: %ID/g of [^18F]-GA in the lungs, Con
  tissue uptake at 4500 s: 1.05 %ID/g
[1]; male, Kunming, mouse, lungs, intravenous, mice, control group, Time(s) 5100, read-out: %ID/g of [^18F]-GA in the lungs, Con
  tissue uptake at 5100 s: 1.04 %ID/g
[1]; male, Kunming, mouse, lungs, intravenous, mice, control group, Time(s) 5700, read-out: %ID/g of [^18F]-GA in the lungs, Con
  tissue uptake at 5700 s: 1.02 %ID/g
[1]; male, Kunming, mouse, lungs, intravenous, mice, control group, Time(s) 6300, read-out: %ID/g of [^18F]-GA in the lungs, Con
  tissue uptake at 6300 s: 0.97 %ID/g
[1]; male, Kunming, mouse, lungs, intravenous, mice, control group, Time(s) 6900, read-out: %ID/g of [^18F]-GA in the lungs, Con
  tissue uptake at 6900 s: 0.94 %ID/g
[1]; male, Kunming, mouse, lungs, mice, PG polysaccharides orally 1 h before [^18F]-GA, Time(s) 60
  tissue uptake at 1 h: 8.21 %ID/g
[1]; male, Kunming, mouse, lungs, mice, PG polysaccharides orally 1 h before [^18F]-GA, Time(s) 180
  tissue uptake at 1 h: 5.95 %ID/g
[1]; male, Kunming, mouse, lungs, mice, PG polysaccharides orally 1 h before [^18F]-GA, Time(s) 300
  tissue uptake at 1 h: 5.53 %ID/g
[1]; male, Kunming, mouse, lungs, mice, PG polysaccharides orally 1 h before [^18F]-GA, Time(s) 420
  tissue uptake at 1 h: 5.2 %ID/g
[1]; male, Kunming, mouse, lungs, mice, PG polysaccharides orally 1 h before [^18F]-GA, Time(s) 540
  tissue uptake at 1 h: 4.85 %ID/g
[1]; male, Kunming, mouse, lungs, mice, PG polysaccharides orally 1 h before [^18F]-GA, Time(s) 660
  tissue uptake at 1 h: 4.63 %ID/g
[1]; male, Kunming, mouse, lungs, mice, PG polysaccharides orally 1 h before [^18F]-GA, Time(s) 780
  tissue uptake at 1 h: 4.54 %ID/g
[1]; male, Kunming, mouse, lungs, mice, PG polysaccharides orally 1 h before [^18F]-GA, Time(s) 900
  tissue uptake at 1 h: 4.53 %ID/g
[1]; male, Kunming, mouse, lungs, mice, PG polysaccharides orally 1 h before [^18F]-GA, Time(s) 1020
  tissue uptake at 1 h: 4.35 %ID/g
